The source of these data is patent publication US12214036B2, “Combination therapy comprising AXL/MER and PD-1/PD-L1 inhibitors” (Incyte Corporation, priority 2020, dated 2025).

The assay addresses T1, MER (Homo sapiens, UniProt Q12866).
T1 sequence (Q12866 21-999): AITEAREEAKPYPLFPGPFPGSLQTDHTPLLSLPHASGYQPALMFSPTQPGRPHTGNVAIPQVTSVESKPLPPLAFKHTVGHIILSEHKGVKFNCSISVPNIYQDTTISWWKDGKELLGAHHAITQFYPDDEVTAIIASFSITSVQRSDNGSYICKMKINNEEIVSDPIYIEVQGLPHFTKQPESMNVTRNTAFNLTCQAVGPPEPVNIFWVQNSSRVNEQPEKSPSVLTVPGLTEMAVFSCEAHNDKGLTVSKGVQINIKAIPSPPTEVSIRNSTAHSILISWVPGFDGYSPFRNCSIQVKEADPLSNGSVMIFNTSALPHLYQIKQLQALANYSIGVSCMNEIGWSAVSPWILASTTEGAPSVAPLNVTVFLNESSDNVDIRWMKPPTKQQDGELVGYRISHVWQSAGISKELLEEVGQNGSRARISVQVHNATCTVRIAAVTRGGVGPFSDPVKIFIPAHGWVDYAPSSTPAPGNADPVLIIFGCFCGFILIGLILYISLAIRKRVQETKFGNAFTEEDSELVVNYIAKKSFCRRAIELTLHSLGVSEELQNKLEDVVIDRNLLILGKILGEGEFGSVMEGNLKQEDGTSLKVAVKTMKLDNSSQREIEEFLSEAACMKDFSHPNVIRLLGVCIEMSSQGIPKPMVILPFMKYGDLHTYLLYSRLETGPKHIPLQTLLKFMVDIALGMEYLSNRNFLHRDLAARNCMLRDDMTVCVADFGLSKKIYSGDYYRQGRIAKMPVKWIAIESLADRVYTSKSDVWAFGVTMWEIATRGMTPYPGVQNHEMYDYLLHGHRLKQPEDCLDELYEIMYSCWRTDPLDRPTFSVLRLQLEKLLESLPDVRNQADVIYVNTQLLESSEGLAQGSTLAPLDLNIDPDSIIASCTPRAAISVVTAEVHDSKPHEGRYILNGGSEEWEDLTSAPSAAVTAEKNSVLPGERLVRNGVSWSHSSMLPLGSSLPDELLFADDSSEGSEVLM
Briefly: Inhibition of MER kinase activity in primary macrophages (Western blot). Type of assay: cell-based. Conditions: primary macrophages from human PBMCs, 2 hours pretreatment, MAB8912 stimulation, N=2 (FIG. 4); read-out: IC50, pMER inhibition. How it is done:
The ability of Compound 1 to modulate the activity of MER kinase in macrophages was evaluated.
Human peripheral blood mononuclear cells (PBMCs) were separated using Ficoll-Paque density gradient centrifugation and any remaining red blood cells (RBC) were lysed using 1×RBC Lysis Buffer (Cell Signaling Technology) for 5 minutes at room temperature. The PBMCs were washed with PBS before being enriched for monocytes using CD14 microbeads positive selection separation following the manufacturer's protocol as specified (AutoMacs Pro, Miltenyi Biotec, Bergisch Gladbach, Germany). […]
Macrophages were allowed to thaw on ice before being lysed with 250 μL/well of 1× Lysis Buffer (Cell Signaling Technology; #9803) and Halt protease and phosphatase inhibitors (ThermoFisher Scientific) for 1 hour at 4° C. […] Protein lysates were quantified using BCA Protein Assay Kit (Pierce, ThermoFisher Scientific; #23225). […] The membranes were washed again before the bands were detected with SuperSignal West Dura Extended Duration Chemiluminescent substrate (ThermoFisher Scientific) and were visualized using the Fluorochem M Digital Imager (Protein Simple, San Jose, Calif.).

`CC(C)C(=O)N1CCC(c2cc(-c3ccc(NC(=O)c4cn(C(C)C)c(=O)n(-c5ccccn5)c4=O)cc3)c3c(N)ncnn23)CC1` [Compound 1, N-(4-(4-Amino-7-(1-isobutyrylpiperidin-4-yl)pyrrolo[1,2-f][1,2,4]triazin-5-yl)phenyl)-1-isopropyl-2,4-dioxo-3-(pyridin-2-yl)-1,2,3,4-tetrahydropyrimidine-5-carboxamide]: the IC50 (in general, the concentration that gives 50% inhibition) was 1.6 ± 0.4 nM.
